Reference: ChEMBL document CHEMBL1155516, “Biochemical and structural analysis of the binding determinants of a vascular endothelial growth factor receptor peptidic antagonist” (J Med Chem, 2010)
Active and inactive are the calls of the source. The rule behind the calls is not given here. Where a SMILES comes first, the peptide text is derived from it. Bridges are numbered along the chain shown (N, C = ends).

What was measured:
[1] = biological target: Vascular endothelial growth factor receptor 2 (Homo sapiens) (UniProt P35968); assay: Inhibition of VEGFR2 phosphorylation in VEGF165-stimulated HUVEC at 100 uM treated for 1 hr before VEGF165 challenge measured after 5 mins by Western blot analysis; type: cell-based
[2] = biological target: Vascular endothelial growth factor receptor 2 (Homo sapiens) (UniProt P35968); assay: Inhibition of VEGFR2 phosphorylation in VEGF165-stimulated HUVEC treated for 1 hr before VEGF165 challenge measured after 5 mins by Western blot analysis; type: cell-based
[3] = biological target: Vascular endothelial growth factor receptor 2 (Homo sapiens) (UniProt P35968); assay: Inhibition of VEGFR2 phosphorylation in VEGF165-stimulated HUVEC at 10 uM treated for 1 hr before VEGF165 challenge measured after 5 mins by Western blot analysis; type: cell-based
[4] = biological target: Vascular endothelial growth factor receptor 2 (Homo sapiens) (UniProt P35968); assay: Inhibition of VEGFR2 phosphorylation in VEGF165-stimulated HUVEC at 3 uM treated for 1 hr before VEGF165 challenge measured after 5 mins by Western blot analysis
[5] = biological target: Vascular endothelial growth factor receptor 2 (Homo sapiens) (UniProt P35968); assay: Inhibition of VEGFR2 phosphorylation in VEGF165-stimulated HUVEC at 33 uM treated for 1 hr before VEGF165 challenge measured after 5 mins by Western blot analysis; type: cell-based
HUVEC [6] = conditions: Homo sapiens, 100 uM
Description: Inhibition of VEGFR in HUVEC assessed as inhibition of VEGF165-induced ERK1/2 phosphorylation at 100 uM treated for 1 hr before VEGF165 challenge measured after 15 mins by Western blot analysis

HUVEC [7] = conditions: Homo sapiens, 33 uM
Description: Inhibition of VEGFR in HUVEC assessed as inhibition of VEGF165-induced ERK1/2 phosphorylation at 33 uM treated for 1 hr before VEGF165 challenge measured after 15 mins by Western blot analysis

HUVEC [8] = conditions: Homo sapiens, 10 uM
HUVEC [9] = conditions: Homo sapiens, 3 uM
Description: Inhibition of VEGFR in HUVEC assessed as inhibition of VEGF165-induced ERK1/2 phosphorylation at 3 uM treated for 1 hr before VEGF165 challenge measured after 15 mins by Western blot analysis

[10] = biological target: Vascular endothelial growth factor receptor 2 (Homo sapiens) (UniProt P35968); assay: Binding affinity to human recombinant VEGFR2 extracellular domain immobilized in CNBr-activated sepharose at 25 nmol after 5 mins by pull-down assay

Chain of Vascular endothelial growth factor receptor 2 (Homo sapiens) (P35968 whole entry, the tested form may be a part): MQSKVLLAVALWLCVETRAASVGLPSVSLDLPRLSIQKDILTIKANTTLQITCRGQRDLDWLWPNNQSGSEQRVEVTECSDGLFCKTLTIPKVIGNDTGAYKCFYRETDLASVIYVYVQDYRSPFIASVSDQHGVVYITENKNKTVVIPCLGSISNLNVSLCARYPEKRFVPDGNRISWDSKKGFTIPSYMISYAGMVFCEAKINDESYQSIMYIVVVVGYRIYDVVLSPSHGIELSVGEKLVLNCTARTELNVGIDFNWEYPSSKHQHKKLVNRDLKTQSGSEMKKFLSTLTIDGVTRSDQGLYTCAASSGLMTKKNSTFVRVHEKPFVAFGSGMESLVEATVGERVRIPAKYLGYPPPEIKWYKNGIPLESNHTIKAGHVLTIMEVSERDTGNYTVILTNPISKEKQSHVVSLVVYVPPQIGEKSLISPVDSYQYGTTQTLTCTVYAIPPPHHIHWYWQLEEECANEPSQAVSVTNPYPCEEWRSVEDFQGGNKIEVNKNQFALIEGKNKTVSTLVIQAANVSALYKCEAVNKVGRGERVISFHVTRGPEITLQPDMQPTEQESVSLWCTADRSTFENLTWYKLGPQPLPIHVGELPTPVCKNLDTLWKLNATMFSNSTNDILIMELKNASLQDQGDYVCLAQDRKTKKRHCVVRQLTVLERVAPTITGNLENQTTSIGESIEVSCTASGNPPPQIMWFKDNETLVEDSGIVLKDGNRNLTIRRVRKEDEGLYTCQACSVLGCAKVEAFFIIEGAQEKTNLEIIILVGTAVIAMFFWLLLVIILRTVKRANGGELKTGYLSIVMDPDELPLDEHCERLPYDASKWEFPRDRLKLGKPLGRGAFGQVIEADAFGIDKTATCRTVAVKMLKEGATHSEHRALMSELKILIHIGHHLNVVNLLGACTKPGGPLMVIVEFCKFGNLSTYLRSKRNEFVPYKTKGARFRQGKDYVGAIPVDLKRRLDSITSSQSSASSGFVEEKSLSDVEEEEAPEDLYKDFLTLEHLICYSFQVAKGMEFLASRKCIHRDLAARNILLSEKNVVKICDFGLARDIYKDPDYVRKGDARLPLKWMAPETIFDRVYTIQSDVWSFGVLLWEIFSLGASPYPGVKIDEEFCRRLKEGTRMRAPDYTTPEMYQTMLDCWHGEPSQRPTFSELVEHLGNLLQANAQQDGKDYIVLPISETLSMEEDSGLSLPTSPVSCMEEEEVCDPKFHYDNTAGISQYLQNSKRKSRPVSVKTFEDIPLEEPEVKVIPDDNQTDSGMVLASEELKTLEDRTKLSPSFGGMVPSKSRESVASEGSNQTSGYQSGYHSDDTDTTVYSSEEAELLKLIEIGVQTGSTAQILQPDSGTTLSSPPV

SMILES | inhibition [1] | also measured
CC(C)C[C@@H]1NC(=O)CNC(=O)[C@H](CCC(=O)O)NC(=O)[C@H](CC(=O)O)NC(=O)[C@H](Cc2ccc(O)cc2)NC(=O)[C@H](C)NC(=O)CC[C@@H](C(N)=O)NC(=O)[C@H](CCC(=O)O)NC1=O (AYDEGLEE-NH2; lactam N-8) | inactive | –
CC(C)C[C@@H]1NC(=O)CNC(=O)[C@H](CCC(=O)O)NC(=O)[C@H](CC(=O)O)NC(=O)[C@H](C)NC(=O)[C@H](Cc2ccc(O)cc2)NC(=O)CC[C@@H](C(N)=O)NC(=O)[C@H](CCC(=O)O)NC1=O (YADEGLEE-NH2; lactam N-8) | inactive | –
CC(C)C[C@@H]1NC(=O)CNC(=O)[C@H](CCC(=O)O)NC(=O)[C@H](CC(=O)O)NC(=O)[C@H](CCCCN)NC(=O)[C@H](Cc2ccc(O)cc2)NC(=O)CC[C@@H](C(N)=O)NC(=O)[C@H](CCC(=O)O)NC1=O (YKDEGLEE-NH2; lactam N-8) | Active | –
CC(C)C[C@@H]1NC(=O)CNC(=O)[C@H](C)NC(=O)[C@H](CC(=O)O)NC(=O)[C@H](Cc2ccc(O)cc2)NC(=O)[C@H](Cc2ccc(O)cc2)NC(=O)CC[C@@H](C(N)=O)NC(=O)[C@H](CCC(=O)O)NC1=O (YYDAGLEE-NH2; lactam N-8) | inactive | –
CC(C)C[C@@H]1NC(=O)CNC(=O)[C@H](CCC(=O)O)NC(=O)[C@H](CC(=O)O)NC(=O)[C@H](Cc2ccc(O)cc2)NC(=O)[C@H](Cc2ccc(O)cc2)NC(=O)CC[C@@H](C(N)=O)NC(=O)[C@H](CCC(=O)O)NC1=O (YYDEGLEE-NH2; lactam N-8) | Active | inhibition [2]: Dose-dependent effect; inhibition [3]: Active; inhibition [4]: inactive; inhibition [5]: Active; inhibition (HUVEC [6]): Active; inhibition (HUVEC [7]): Active; inhibition (HUVEC [8]): Active; inhibition (HUVEC [9]): inactive

Further lines, with some results ahead:

inhibition [1] | SMILES | also measured
inactive | C[C@@H]1NC(=O)CNC(=O)[C@H](CCC(=O)O)NC(=O)[C@H](CC(=O)O)NC(=O)[C@H](Cc2ccc(O)cc2)NC(=O)[C@H](Cc2ccc(O)cc2)NC(=O)CC[C@@H](C(N)=O)NC(=O)[C@H](CCC(=O)O)NC1=O (YYDEGAEE-NH2; lactam N-8) | –
inactive | CC(C)C[C@@H]1NC(=O)CNC(=O)[C@H](CCC(=O)O)NC(=O)[C@H](CC(=O)O)NC(=O)[C@H](Cc2ccc(O)cc2)NC(=O)[C@H](Cc2ccc(O)cc2)NC(=O)CC[C@@H](C(N)=O)NC(=O)[C@H](C)NC1=O (YYDEGLAE-NH2; lactam N-8) | –
Active | CC(C)C[C@@H]1NC(=O)[C@H](CCCCN)NC(=O)[C@H](CCC(=O)O)NC(=O)[C@H](CC(=O)O)NC(=O)[C@H](Cc2ccc(O)cc2)NC(=O)[C@H](Cc2ccc(O)cc2)NC(=O)CC[C@@H](C(N)=O)NC(=O)[C@H](CCC(=O)O)NC1=O (YYDEKLEE-NH2; lactam N-8) | –
Active | CC(C)C[C@@H]1NC(=O)CNC(=O)[C@H](CCC(=O)O)NC(=O)[C@H](CCCCN)NC(=O)[C@H](Cc2ccc(O)cc2)NC(=O)[C@H](Cc2ccc(O)cc2)NC(=O)CC[C@@H](C(N)=O)NC(=O)[C@H](CCC(=O)O)NC1=O (YYKEGLEE-NH2; lactam N-8) | Activity [10]: inactive
